Assays:
mGluR2 = mGluR2 (Homo sapiens, UniProt Q14416); conditions: read-out: IC50 against mGluR2; cited from earlier work
mGluR3 = mGluR3 (Homo sapiens, UniProt Q14832); conditions: read-out: IC50 against mGluR3; cited from earlier work
Group I receptors = conditions: sub-mM concentrations; cited from earlier work
Group III receptors = conditions: sub-mM concentrations; cited from earlier work
KA iGlu receptors = conditions: cited from earlier work
AMPA iGlu receptors = conditions: cited from earlier work
NMDA iGlu receptors = conditions: cited from earlier work
human mGlu2 = human mGlu2 (Homo sapiens, UniProt Q14416); conditions: in vitro, agonist; read-out: EC50 against human mGlu2 receptors; cited from earlier work
human mGlu3 = human mGlu3 (Homo sapiens, UniProt Q14832); conditions: in vitro, agonist; read-out: EC50 against human mGlu3 receptors; cited from earlier work
[1] = system: human neural stem cells (hNSCs)
Experimental: In one non-limiting example neurogenesis, a neurogenic response, and neurodifferentiation are all measured in an in vitro assay as follows. […] Mitogen-free test media with a positive control is used for neuronal differentiation, and basal media without growth factors serves as a negative control. Neurogenesis is determined, for example, by measuring the proliferation and/or differentiation of the hNSCs in the presence of varying concentrations of test compound compared to the absence of the test compound (negative control). […] Neurodifferentiation is measured, for example, by detecting neurodifferentiation specific expression markers which methods are known in the art.
(§1) A positive control for neuronal differentiation was used along with basal media without growth factors as a negative control.
as §1

Sequence of human mGlu3 (Q14832 23-879): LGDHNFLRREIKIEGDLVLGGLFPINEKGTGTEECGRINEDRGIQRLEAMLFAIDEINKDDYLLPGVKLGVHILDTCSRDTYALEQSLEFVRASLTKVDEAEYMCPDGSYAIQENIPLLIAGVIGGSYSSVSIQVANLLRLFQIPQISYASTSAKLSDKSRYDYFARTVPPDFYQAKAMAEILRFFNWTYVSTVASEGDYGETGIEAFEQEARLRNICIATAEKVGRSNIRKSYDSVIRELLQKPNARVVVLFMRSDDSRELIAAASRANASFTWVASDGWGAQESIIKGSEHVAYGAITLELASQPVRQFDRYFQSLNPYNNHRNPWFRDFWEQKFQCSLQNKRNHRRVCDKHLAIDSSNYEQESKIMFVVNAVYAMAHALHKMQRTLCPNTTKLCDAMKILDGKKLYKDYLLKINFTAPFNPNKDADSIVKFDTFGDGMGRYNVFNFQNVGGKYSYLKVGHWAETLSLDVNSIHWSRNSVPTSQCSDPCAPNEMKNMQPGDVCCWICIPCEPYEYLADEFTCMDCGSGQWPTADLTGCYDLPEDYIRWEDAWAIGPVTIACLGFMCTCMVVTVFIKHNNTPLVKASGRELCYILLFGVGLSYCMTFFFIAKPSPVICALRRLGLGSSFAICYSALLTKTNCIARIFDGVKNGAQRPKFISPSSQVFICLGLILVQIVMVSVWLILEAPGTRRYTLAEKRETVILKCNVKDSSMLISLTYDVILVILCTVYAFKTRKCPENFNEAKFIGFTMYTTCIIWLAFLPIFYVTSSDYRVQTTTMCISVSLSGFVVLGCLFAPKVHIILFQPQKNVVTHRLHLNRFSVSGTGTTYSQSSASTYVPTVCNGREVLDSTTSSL
Sequence of mGluR3 (Q14832 23-879): as above
Sequence of mGluR2 (Q14416 19-872): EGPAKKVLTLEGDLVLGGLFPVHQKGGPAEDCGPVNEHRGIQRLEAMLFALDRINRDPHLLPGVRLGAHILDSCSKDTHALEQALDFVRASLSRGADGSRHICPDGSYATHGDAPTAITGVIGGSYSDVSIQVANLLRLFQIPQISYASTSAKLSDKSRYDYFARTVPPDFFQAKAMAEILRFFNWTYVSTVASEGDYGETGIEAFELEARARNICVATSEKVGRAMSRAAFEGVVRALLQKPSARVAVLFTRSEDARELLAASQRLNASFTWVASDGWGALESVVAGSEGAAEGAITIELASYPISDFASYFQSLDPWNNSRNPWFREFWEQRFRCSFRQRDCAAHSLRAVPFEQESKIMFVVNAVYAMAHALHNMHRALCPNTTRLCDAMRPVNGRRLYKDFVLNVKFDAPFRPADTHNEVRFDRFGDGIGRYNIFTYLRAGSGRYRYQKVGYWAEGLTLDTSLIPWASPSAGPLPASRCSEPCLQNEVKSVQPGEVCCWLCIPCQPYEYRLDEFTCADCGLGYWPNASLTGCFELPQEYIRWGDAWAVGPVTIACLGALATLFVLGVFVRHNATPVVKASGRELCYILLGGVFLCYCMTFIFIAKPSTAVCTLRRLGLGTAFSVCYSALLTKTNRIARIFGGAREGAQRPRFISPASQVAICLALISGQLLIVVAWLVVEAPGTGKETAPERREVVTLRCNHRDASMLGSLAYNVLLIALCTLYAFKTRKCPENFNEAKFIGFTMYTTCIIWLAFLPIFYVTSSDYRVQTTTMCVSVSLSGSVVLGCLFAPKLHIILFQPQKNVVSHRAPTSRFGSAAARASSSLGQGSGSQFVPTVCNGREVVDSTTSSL
Sequence of human mGlu2 (Q14416 19-872): as above

NC1(C(=O)O)CCc2cc(P(=O)(O)O)ccc21 (racemic) [APICA, (RS)-1-amino-5-phosphonoindan-1-carboxylic acid]
IC50 (mGluR2): ~30 µM
IC50 (mGluR3): ~30 µM
activity against Group I receptors (Group I receptors): no appreciable activity
activity against Group III receptors (Group III receptors): no appreciable activity

N[C@](CC1c2ccccc2Oc2ccccc21)(C(=O)O)[C@H]1C[C@@H]1C(=O)O [LY341495, (2S)-2-amino-2-(1S,2S-2-carboxycycloprop-1-yl)-3-(xanth-9-yl)propanoic acid]
activity against KA iGlu receptors (KA iGlu receptors): substantially inactive
activity against AMPA iGlu receptors (AMPA iGlu receptors): substantially inactive
activity against NMDA iGlu receptors (NMDA iGlu receptors): substantially inactive

N[C@@]1(C(=O)O)CO[C@H]2[C@H](C(=O)O)[C@H]21 [LY379268, (−)-2-Oxa-4-aminobicyclohexane-4,6-dicarboxylic acid]
EC50 (human mGlu2): < 0.01 µM
EC50 (human mGlu3): < 0.01 µM

Clc1ccc2c(c1)N=C(N1CCNCC1)c1ccccc1N2 [N-desmethylclozapine]
neurogenic activity ([1]; in assays as disclosed herein): highly neurogenic

CCCC[C@H](NC(C)=O)C(=O)N[C@H]1CC(=O)NCCCC[C@@H](C(=O)O)NC(=O)[C@H](Cc2c[nH]c3ccccc23)NC(=O)[C@H](CCCNC(=N)N)NC(=O)[C@@H](Cc2ccccc2)NC(=O)[C@H](Cc2c[nH]cn2)NC1=O [PT-141, bremelanotide]
effect on neuronal differentiation ([1]; hNSCs, dose response, TUJ-1 staining): promoted neuronal differentiation
EC50 ([1]; read-out: EC50, neuronal differentiation, hNSCs, percent of neuronal positive control, basal media values subtracted): 0.2 µM
